Measurements as given in article PMC11758220, “Identification of a Privileged Scaffold for Inhibition of Sterol Transport Proteins through the Synthesis and Ring Distortion of Diverse, Pseudo-Natural Products” (ACS Central Science, 2025).
pIC50: −log10 of the molar value.

Tests used:
Aster-A = target: T1, Aster-A (Homo sapiens, UniProt Q96CP6); assay: Fluorescence polarisation (FP) competition with NBD-cholesterol, Aster-A; assay type: binding; conditions: for pIC50: mean of three experiments run in technical duplicates; for inhibition at 10 µM / Aster-A (FP) inhibition: single dose, Dose = 10 µM
T1 construct: Aster-A(359-547); GST (PreScission-cleavable) (N, cleaved yes); made in house; host or cells: E. coli OverExpress C41
T1 sequence (Q96CP6 359-547): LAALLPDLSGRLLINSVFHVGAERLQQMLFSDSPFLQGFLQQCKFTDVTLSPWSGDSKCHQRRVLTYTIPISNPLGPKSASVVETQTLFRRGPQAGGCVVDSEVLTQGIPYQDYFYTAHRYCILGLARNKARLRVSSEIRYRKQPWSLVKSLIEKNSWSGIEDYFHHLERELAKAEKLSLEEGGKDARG
Source text: (§1) Protein expression constructs
(§2) Human ASTER domains of Aster-A(359-547), -B(364-552) and -C(318-504) were subcloned into a pGEX-6p-2rbs vector, thus introducing the cloning artifact ‘GPLGS’.3 The pGEX-6P-1-GST-OSBP(377- […]
(§3) a gift from James H. Hurley (University of California).4 The pHIS_2His6_Thrombin_STARD4(2-205;C75S) plasmid was a gift from Young Jun Im (Chonnam National University).5 STARD5A was a gift from Nicola Burgess-Brown (Addgene plasmid #42392; http://n2t.net/addgene:42392; […]
(§4) Protein expression and purification […]
(§5) vectors including an N-terminal PreScission-cleavable glutathione S-transferase (GST)-tag were expressed in Escherichia coli (E. coli) OverExpress C41 in Terrific Broth (TB) medium for 16 h at 18 °C after the induction with 0.1 mM isopropyl β-D-1-thiogalactopyranoside (IPTG). Cells were harvested at 3500 × g for 15 minutes and lysed by sonication in buffer containing 50 mM HEPES pH 7.5, 300 mM NaCl, 10 %v/v glycerol, 5 mM dithiothreitol (DTT), 0.1 %v/v Triton X-100 and protease inhibitor mix HP plus (Serva). The lysate was purified by affinity chromatography on a GSTrap FF column (Cytiva) using an ÄKTA Start (Cytiva) in buffer containing 50 mM HEPES pH 7.5, 300 mM NaCl, 10 %v/v glycerol, 5 mM DTT and 0.01 %v/v Triton X-100. The GST-tag was cleaved overnight on the column at 4 °C. The Aster sterol binding domains were further purified by size-exclusion chromatography (SEC) on a HiLoad 16/600 Superdex 75 pg (Cytiva) in buffer containing 20 mM HEPES pH 7.5, 300 mM NaCl, 10 %v/v […]
(§6) STARD5(6-213) harboring an N-terminal His6-Tag were expressed in E. coli BL21(DE3) in Luria-Bertani Broth (LB) medium for approximately 16 h at 18 °C after induction with 0.15 mM IPTG. Cells were harvested at 3500 × g for 15 minutes and lysed by sonication in buffer containing 50 mM HEPES pH 7.5, 150 mM NaCl, 5 %v/v glycerol, 5 mM DTT, 0.1 %v/v Triton X -100 and ethylenediaminetetraacetic acid (EDTA)-free protease inhibitor cocktail (Sigma-Aldrich). The cleared lysate was purified by affinity chromatography on a Ni-NTA Superflow Cartridge (Qiagen) using an ÄKTA Start (Cytiva) in buffer containing 50 mM HEPES pH 7.5, 150 mM NaCl, 5 %v/v glycerol, 5 mM DTT. START domains were eluted by using elution buffer containing 50 mM HEPES pH 7.5, 150 mM NaCl, 5 %v/v glycerol, 5 mM DTT and 500 mM imidazole. Proteins were further purified by SEC on a HiLoad 16/600 Superdex 75 pg (Cytiva) in buffer containing 20 mM HEPES pH 7.5, 150 mM NaCl, 5 %v/v glycerol and 2 mM DTT.
(§7) The ORP domain of human OSBP(377-807) in the pGEX-6p-1 vector with an N-terminal PreScission-cleavable GST-tag was expressed in E. coli OverExpress C41 in LB medium for 16 h at 18 °C after induction with 0.1 mM IPTG. Cells were harvested at 3500 × g for 15 minutes and lysed by sonication in buffer containing 20 mM HEPES pH 7.5, 300 mM NaCl, 10 %v/v glycerol, 5 mM DTT, 0.1 %v/v Triton X-100 and EDTA-free protease inhibitor cocktail (Sigma-Aldrich). The cleared lysate was purified by affinity chromatography on a GSTrap HF column (Cytiva) using an ÄKTA Start (Cytiva) in buffer containing 20 mM HEPES pH 7.5, 300 mM NaCl, 10 %v/v glycerol, 5 mM DTT. OSBP(377 -807) was eluted by using elution buffer containing 20 mM HEPES pH 7.5, 300 mM NaCl, 10 %v/v glycerol, 5 mM DTT and 10 mM reduced glutathione. Proteins were further purified by SEC on a HiLoad 16/600 Superdex 75 pg (Cytiva) using an ÄKTA Explorer (Cytiva) in buffer containing 20 mM HEPES pH 7.5, 150 mM NaCl, 10 %v/v glycerol and 2 mM DTT.
(§8) The ORP domains of human ORP1(534-950) in pET24b(+) and ORP2(49-480) in the pET24b(+) vector including an N-terminal His6-Tag were expressed in E. coli BL21(DE3) in TB medium for approximately 16 h at 18 °C after induction with 0.1 mM IPTG. Cells were collected at 3500 × g for 15 minutes and lysed by sonification in buffer containing 10 mM Tris-HCl pH 8, 300 mM NaCl, 5 % glycerol, 2 mM DTT, 0.1 % Triton X-100 and EDTA-free protease inhibitor cocktail (Sigma-Aldrich). The cleared […]

ORP2 = target: T2, ORP2 (Homo sapiens, UniProt Q9H1P3); assay: Fluorescence polarisation (FP) competition with NBD-cholesterol, ORP2; assay type: binding; conditions: for pIC50: mean of three experiments run in technical duplicates; for inhibition at 10 µM / ORP2 (FP) inhibition: single dose, Dose = 10 µM
T2 construct: ORP2(49-480); host or cells: E. coli BL21(DE3)
T2 sequence (Q9H1P3 49-480): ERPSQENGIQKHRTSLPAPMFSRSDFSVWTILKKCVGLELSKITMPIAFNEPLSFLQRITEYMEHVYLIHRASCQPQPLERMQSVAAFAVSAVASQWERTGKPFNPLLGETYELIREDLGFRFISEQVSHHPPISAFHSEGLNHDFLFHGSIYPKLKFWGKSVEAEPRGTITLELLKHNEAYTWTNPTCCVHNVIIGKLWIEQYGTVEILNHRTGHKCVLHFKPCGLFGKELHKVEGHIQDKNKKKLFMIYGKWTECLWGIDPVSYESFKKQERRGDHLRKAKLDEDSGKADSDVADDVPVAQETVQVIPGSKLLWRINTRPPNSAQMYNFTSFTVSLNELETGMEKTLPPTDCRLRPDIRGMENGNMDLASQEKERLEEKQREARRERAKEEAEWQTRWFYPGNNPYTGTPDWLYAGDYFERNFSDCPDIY
Source text: as §1, §2, §3, §4, §5, §6, §7, §8

| SMILES | pIC50 (Aster-A) | inhibition at 10 µM (Aster-A) | pIC50 (ORP2) | inhibition at 10 µM (ORP2) | Aster-A (FP) inhibition (Aster-A) | ORP2 (FP) inhibition (ORP2) |
| --- | --- | --- | --- | --- | --- | --- |
| C[C@]12CC[C@@H]3C[C@H]1CC[C@@]21C(=Nc2ccc(Br)cc21)O3 (racemic) [Compound 15b] | 5.37 | 67% | 5.15 | 29% |  |  |
| CC12CCC3CC1CCC21C(=Nc2ccc(N4CCOCC4)cc21)O3 (racemic) [Compound 19a] | 6.11 | 60% | < 4.10 | 27% |  |  |
| CC12CCC3CC1CCC21C(=Nc2ccc(Br)cc21)O3 (single isomer, unassigned; (+)) [(+)-15b] | 4.46 | 2% | < 4.10 | 35% |  |  |
| CC12CCC3CC1CCC21C(=Nc2ccc(N4CCOCC4)cc21)O3 (single isomer, unassigned; (+)) [(+)-19a] | 4.81 |  | < 4.10 |  | 12% | 7% |
| CC12CCC3CC1CCC21C(=Nc2ccc(N4CCOCC4)cc21)O3 (single isomer, unassigned; (-)) [(−)-19a] | 6.34 |  | < 4.30 |  | 79% | 32% |
| C[C@@]12CC[C@H]3C[C@@H]1CC[C@]21C(=Nc2ccc(Br)cc21)O3 [(−)-15b] | 5.38 | 80% | 5.23 | 60% |  |  |
| CC(C)Oc1ccc(C(=O)Nc2nc3c(s2)CN(C(=O)OC(C)(C)C)CC3)cc1 [Autogramin-2, reference compound] | 5.96 |  | 5.17 |  | 70% | 18% |
| Cc1c2c(nc3ccccc13)[C@@]1(C)CC[C@@H](O)C[C@H]1CC2 [Compound 2a] |  | 1% |  | 43.5% |  |  |
| C[C@]12CC[C@@H](O)C[C@H]1CCc1c2nc2ccccc2c1-c1ccccc1 [Compound 2b] |  |  |  |  | -2% | 14% |
| Cc1c2c(nc3cc(Br)ccc13)[C@@]1(C)CC[C@@H](O)C[C@H]1CC2 [Compound 2c] |  |  |  |  | -1% | 53% |
| C[C@]12CC[C@@H](O)C[C@H]1CCc1c2nc2ccccc2c1-c1ccc(F)cc1 [Compound 2d] |  | -6% |  | 14% |  |  |
| C[C@]12CC[C@@H](O)C[C@H]1CCc1c2nc2ccc(Cl)cc2c1-c1ccccc1 [Compound 2e] |  |  |  |  | -4% | 15% |
| C[C@]12CC[C@@H](O)C[C@H]1CCc1c2[nH]c2ncccc12 [Compound 3] |  | -2% |  | 2% |  |  |
| C[C@]12CC[C@@H](O)C[C@H]1CCC[C@]21Nc2ccccc2-n2cccc21 [Compound 4] |  | -9% |  | 12% | -8% | 25% |
| C[C@]12CC[C@@H](O)C[C@H]1CCC[C@]21NC(=O)c2ccccc2N1 [Compound 5a] |  | 0% |  | 6% | -2% | 11% |
| C[C@]12CC[C@@H](O)C[C@H]1CCC[C@]21NC(=O)c2ccc(F)cc2N1 [Compound 5b] |  | -1% |  | 7% | -2% | 2% |
| COc1ccc2c(c1)C(=O)N[C@]1(CCC[C@@H]3C[C@H](O)CC[C@@]31C)N2 [Compound 5c] |  |  |  | 24% | -1% | 12% |
| C[C@]12CC[C@@H](O)C[C@H]1CCc1nc3ccccc3nc12 [Compound 7a] |  | 14% |  | 55% |  |  |
| Cc1cc2nc3c(nc2cc1C)[C@@]1(C)CC[C@@H](O)C[C@H]1CC3 [Compound 7b] |  | -1% |  | 12% |  |  |
| C[C@]12CC[C@@H](O)C[C@H]1CCc1nc3cc(F)c(F)cc3nc12 [Compound 7c] |  |  |  |  | -1% | 9% |
| C[C@]12CC[C@@H](O)C[C@H]1CCc1nc3cc(Cl)c(Cl)cc3nc12 [Compound 7d] |  |  |  |  | 1% | 12% |
| C[C@]12CC[C@@H](O)C[C@H]1CCc1nc3cc(Br)c(Br)cc3nc12 [Compound 7e] |  |  |  |  | -1% | 27% |
| C[C@]12CC[C@@H](O)C[C@H]1CCc1sc(N)nc12 [Compound 8a] |  | -1% |  | 11% |  |  |
| Cc1nc2c(s1)CC[C@@H]1C[C@H](O)CC[C@]21C [Compound 8b] |  |  |  |  | -1% | 13% |
| C[C@]12CC[C@@H](O)C[C@H]1CCc1sc(-c3cccnc3)nc12 [Compound 8c] |  |  |  |  | 0% | 17% |
| COc1ccc(-c2nc3c(s2)CC[C@@H]2C[C@H](O)CC[C@]32C)cc1 [Compound 8d] |  | -1% |  | 38% |  |  |
| C[C@]12CC[C@@H](O)C[C@H]1CCc1sc(-c3ccc(F)cc3)nc12 [Compound 8e] |  |  |  |  | -3% | 25% |
| C[C@]12CC[C@@H](O)C[C@H]1CCc1[nH]c(-c3ccccc3)nc12 [Compound 9] |  | -2% |  | 3.5% |  |  |
| C[C@]12CC[C@@H](O)C[C@H]1CCc1c2[nH]c2ccccc12 [Compound 10a] |  |  |  |  | 1% | 34% |
| C[C@]12CC[C@@H](O)C[C@H]1CCc1c2[nH]c2ccc(Br)cc12 [Compound 10b] |  |  |  |  | -9% | 21% |
